Assay results as given in patent US7449537B2, “Antineoplastic polyalkoxyalkylsiloxanes and methods of use thereof” (NDSU Research Foundation, priority 2001, dated 2008).

Experiments:
Type in all cases: cell-based, human
[1] = system: 3-cell line panel MCF7, NCI-H460, SF-268; assay: DTP screen, overall activity call over the 3-cell line panel; design: key to Activity: Active: Compounds which reduce the growth of any one of the cell lines to a value of +32% or less (negative numbers indicate cell kill) are generally considered to be sufficiently “active”; conditions: for Activity: 1.00 E-04 Molar; for antineoplastic activity in the DTP screen: three test cell lines
Source text: (§1) For the past 10 years, the Developmental Therapeutics Program (DTP) of the National Cancer Institute (NCI) has used an in vitro model consisting of 60 human tumor cell lines as the primary anticancer screen (see, J. Natl. Cancer Inst., 83:757-766, (1991)). […] In view of this, the DTP now uses a 3-cell line panel consisting of the MCF7(breast carcinoma) cell line, the NCI-H460 (lung carcinoma) cell line, and the SF-268 (CNS glioma) cell line as its primary anticancer (antineoplastic) assay. This 3-cell line, single-dose assay has been in use by DTP for several years for the evaluation of combinatorial libraries and has proven to be an effective pre-screen for compounds with antineoplastic activity.
(§2) In the DTP protocol, each cell line is inoculated and preincubated on a microtiter plate. Test agents are then added at a single concentration and the culture incubated for 48 hours. End-point determination are made with sulforhodamine B, a protein-binding dye. Results for each test agent are reported as the percent of growth of the treated cells normalized against the growth of the corresponding untreated control cells, i.e., a reported value of +100% refers to cell growth equivalent to that of the corresponding untreated control cells. […] Compounds which reduce the growth of any one of the cell lines to a value of +32% or less (negative numbers indicate cell kill) are generally considered to be sufficiently “active” to be selected for further evaluation by NCI in a full panel of 60 tumor cell lines over a 5-log dose range.
(§3) Two poly((aminofunctional alkoxy)-alkylsiloxane) compounds were tested for antineoplastic activity in the DTP screen. The two compounds (linear poly((aminofunctional alkoxy)-alkylsiloxanes) 5 and 3) were prepared according to the procedures described in Examples 2 and 5 above, respectively. […] This compound includes 1,3-N,N-dimethylamino-2-propoxy groups.

[2] = system: MCF7 (breast carcinoma) cell line; assay: DTP 3-cell line single-dose antineoplastic pre-screen (sulforhodamine B); conditions: 1.00 E-04 Molar, 48 hours, growth relative to untreated control cells; negative = cell kill
Source text: as §1, §2, §3

[3] = system: NCI-H460 (lung carcinoma) cell line; assay: as above; conditions: 1.00 E-04 Molar, 48 hours, growth relative to untreated control cells; negative = cell kill
Source text: as §1, §2, §3

[4] = system: SF-268 (CNS glioma) cell line; assay: as above; conditions: 1.00 E-04 Molar, 48 hours, growth relative to untreated control cells; negative = cell kill
Source text: as §1, §2, §3

SMILES	Activity [1]	antineoplastic activity in the DTP screen [1]	Growth Percentages (Breast) MCF7 [2]	Growth Percentages (Lung) NCI-H460 [3]	Growth Percentages (CNS) SF-268 [4]
C[Si](C)(C)O[Si](C)(OCCCN)O[Si](C)(OCCCN)O[Si](C)(C)C (stereo not shown) [Compound 3, bis-(trimethylsiloxy)-1,3-dimethyl-1,3-(3-amino-1-propoxy)siloxane]	Inactive	inactive	–	–	–
CN(C)CC(CN(C)C)O[Si](C)(O[Si](C)(C)C)O[Si](C)(OC(CN(C)C)CN(C)C)O[Si](C)(C)C (stereo not shown) [Compound 5, bis-(trimethylsiloxy)-1,3-dimethyl, 1,3-(1,3-(N,N-dimethylamino)-2-propoxy)siloxane]	Active	showed antineoplastic activity against all three test cell lines	−5%	−16%	−24%
